Reference: patent US20230095341A1, “COMPOSITIONS AND METHODS FOR TREATING NEURODEGENERATIVE, MYODEGENERATIVE, AND LYSOSOMAL STORAGE DISORDERS” (GEORGETOWN UNIVERSITY, priority 2020, published 2023)
“Also recorded” adds a separate entry of the source.

Key:
[1] = test system: Tauopathy rTG4510 mice expressing human P301L tau; assay: Open-field behavior; assay type: in vivo, mouse
Procedure: (§1) Tauopathy rTG4510 mice (i.e., a mouse model that clinically manifest a tauopathy), expressing human P301L tau driven by a CAMrII promoter, approximately 9-12 months old, were treated intraperitoneally (I.P.) for 21 consecutive days, with 2.5 mg/kg (n=6) BK40197, 5.0 mg/kg (n=6) BK40197, or Dimethyl sulfoxide (DMSO) (n=7).
Open-field behavior was assessed in an open-field apparatus where animals were tracked by photocell beams along the arena floor for 60 minutes. Data were collected and analyzed for total distance traveled (cm), total time spent moving (sec), and velocity (distance/time) during the 60-minute trial. A center zone was digitally defined in the software, in the center of the apparatus, and center zone entries during the 60-minute trial were recorded.
For nest shredding, Mann-Whitney analysis was used within groups, between timepoints, and Kruskal-Wallis analysis was used between treatment groups. For open-field studies, : ordinary one-way ANOVA or Student's I test was used.

[2] = test system: p-Tau AT8 (Ser202, Thr205); assay: Western blot of p-Tau AT8 (Ser202, Thr205); assay type: in vivo, mouse (rTG4510, expressing human P301L tau); conditions: 2.5 mg/kg; vs DMSO
Procedure: as §1
(§2) Samples collected from DMSO, 2.5 mg/kg-, and 5.0 mg/kg-treated animals were electrophoresed in a NuPAGE 10% Bis-Tris gel and transferred to a nitrocellulose membrane. Membranes were then probed for total humnan tau (HT-7 antibody and Tau-5 antibody) and phospho-tau (pTau AT180 antibody and pTau AT8 antibody), as well as actin, and treated with an anti-mouse secondary antibody. before exposure using SuperSignal West Dura (Thermo Fisher Scientific, Waltham, Mass.) substrates. Some animials were excluded from analysis due to low transgene expression.

[3] = test system: p-Tau AT180 (Thr231); assay: Western blot of p-Tau AT180 (Thr231); assay type: in vivo, mouse (rTG4510, expressing human P301L tau); conditions: 2.5 mg/kg; vs DMSO
Procedure: as §1, §2

[4] = test system: p-Tau (Ser396); assay: pTau Ser396 ELISA of total brain lysates; assay type: in vivo, mouse (rTG4510, expressing human P301L tau); conditions: for reduction in pTau Ser396: vs DMSO
Procedure: as §1
pTau Ser396 (Invitrogen, Cat. No. KHB7031, Carlsbad, Calif.) were performed according to manufacturer's protocol on samples collected from DMSO, 2.5 mg/kg-, and 5.0 mg/kg-treated animals. Samples for ELISA were total brain lysates extracted in IX STEN buffer.

[5] = test system: Tauopathy rTG4510 mice expressing human P301L tau; assay: Overnight nest shredding (nesting) behavior; assay type: in vivo, mouse; conditions: 2.5 mg/kg I.P., three weeks
Procedure: Tauopathy rTG4510 mice (i.e., a mouse model that clinically manifest a tauopathy), expressing human P301L tau driven by a CAMrII promoter, approximately 9-12 months old, were treated intraperitoneally (I.P.) for 21 consecutive days, […], or Dimethyl sulfoxide (DMSO) (n=7).
Then, blinded, independent observers reviewed images of the overnight shredding and the average quality scores were calculated.
For nest shredding, Mann-Whitney analysis was used within groups, between timepoints, and Kruskal-Wallis analysis was used between treatment groups. For open-field studies, : ordinary one-way ANOVA or Student's I test was used. […]
Blinded independent observers reviewed images of the overnight shredding and the average quality scores were calculated.

[6] = target: T1, phosphorylated DDR1 (pDDR1 Tyr513, 296) (Mus musculus, UniProt Q03146); assay: Western blot of phosphorylated DDR1; assay type: in vivo, mouse (rTG4510); conditions: vs DMSO, normalized to actin
T1 construct: Samples collected from DMSO, 2.5 mg/kg-, and 5.0 mg/kg-treated animals were electrophoresed; from tissue; the ELISA samples were total brain lysates
T1 sequence (Q03146 20-911): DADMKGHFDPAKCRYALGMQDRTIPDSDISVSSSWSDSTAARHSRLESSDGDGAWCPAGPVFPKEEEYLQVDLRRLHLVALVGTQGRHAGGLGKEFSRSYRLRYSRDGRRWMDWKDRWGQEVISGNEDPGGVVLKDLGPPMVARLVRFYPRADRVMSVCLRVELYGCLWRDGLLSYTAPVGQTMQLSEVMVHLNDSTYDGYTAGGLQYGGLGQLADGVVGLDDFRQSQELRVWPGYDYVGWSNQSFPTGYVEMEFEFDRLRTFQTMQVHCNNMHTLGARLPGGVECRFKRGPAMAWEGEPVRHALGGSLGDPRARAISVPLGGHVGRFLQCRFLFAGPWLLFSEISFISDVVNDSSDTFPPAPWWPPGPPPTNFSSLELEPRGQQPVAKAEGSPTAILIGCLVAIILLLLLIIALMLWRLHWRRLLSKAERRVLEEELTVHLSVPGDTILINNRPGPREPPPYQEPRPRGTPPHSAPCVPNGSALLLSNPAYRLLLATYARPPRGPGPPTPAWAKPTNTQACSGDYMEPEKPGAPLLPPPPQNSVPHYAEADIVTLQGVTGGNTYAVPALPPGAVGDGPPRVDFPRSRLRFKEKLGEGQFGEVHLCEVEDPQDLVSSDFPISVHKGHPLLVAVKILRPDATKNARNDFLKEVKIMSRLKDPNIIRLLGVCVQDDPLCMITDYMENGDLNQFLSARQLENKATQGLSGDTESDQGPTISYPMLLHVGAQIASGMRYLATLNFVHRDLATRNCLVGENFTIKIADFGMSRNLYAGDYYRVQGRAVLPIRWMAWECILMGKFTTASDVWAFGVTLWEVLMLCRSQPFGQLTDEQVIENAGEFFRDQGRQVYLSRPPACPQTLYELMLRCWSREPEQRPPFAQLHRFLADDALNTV

[7] = test system: B35 rat neuroblastoma cells; assay: MTT assay, cell viability; assay type: cell-based; conditions: 5 hours, concentration given in the value
Procedure: (§3) Rat neuroblastoma B35 cells were grown in Dulbecco's Modified Eagle's Medium (DMEM) with 10% Fetal Bovine Serum (FBS) and 1% penicillin/streptomycin and incubated at 37° C. with 5% CO2. For the experiments, cells were transferred to 12-well plates (Cat. #150628, ThermoFisher, Waltham, Mass.) and grown to at least 70% confluence. Transient transfection was performed with 3pg P301L tau (Cat. #30145, Addgene) cDNA or 3pg human a-synuclein cDNA using Fugene HD transfection reagent (Cat. #E2311, Promega, Madison Wis.) for 24 hours. Cells were treated with ImM, I00pM, 10pM, IpM, 0.lIM, 0.01pMl, and 0.001pM dissolved in DMSO or an equivalent SuL of DMSO for 5 hours. Cell culture media was collected and cells were harvested using sodium-tris, EDTA, NP-40 (STEN) buffer and centrifuged at 10,000×g for 20 minutes at 4′C and supernatant was collected. Cell viability was determined via lactate dehydrogenase assay (Cat. #88954, Thermofisher) and MTT assay (Cat. #V13154, Thennofisher). Protein was extracted by removing culture medium and adding 0.2 ml lx STEN buffer (50 mM Tris (pH 7.6), 150 mM NaCl, 2 mM EDTA, 0.2% NP-40, 0.2% BSA, 20 mM PMSF and protease cocktail inhibitor) to cell layer and incubated on ice for 10 minutes. The bottom of the well was scraped and allowed to incubate on ice for an additional 10 minutes. Cell lysates were collected, stored at -80° C., and used for additional analyses.
(§4) Compound 1 (BK5018), Compound 2 (BK5026), Compound 3 (BK5029), Compound 4 (BD5040), Compound 6 (CL2-296). Compound 7 (CL-2-287-1) and Compound 8 (CL-2-287-2) with molecular weights of 284, 339.265, 264, 339, 269 and 247 gimol, respectively, were diluted in Dimethyl Sulfoxide (DMSO) to final concentrations of 100 pM, 10 µM, 1 pM, 0.1 pM, 0.01 pM, and 0.001 pM. Drugs were stored at −80° C.
To measure cell viability, cells were incubated with 500 pL of Dulbecco's Modified Eagle's Medium (DMEf) containing 50 pL of (3-[4,5-dimethylthiazol-2-yl]-2,5-diphenyl-tetrazolium bromide (ivT)) for 5 hours at 37° C. and 5% CO2. The media was aspirated so that 125 uL of media remained. The formazan salts were dissolved in 250 uL of DMSO. Absorbance was read against a blank containing 125 uL of media and MTT, and 250 uL of DMSO at 570 mn.

[8] = test system: tau; assay: Tau ELISA of whole brain lysates from rTG4510 mice (CL-287-2); assay type: in vivo, mouse (rTG4510, expressing human P301L Tau); conditions: 5 mg/kg; 12 month old rTG4510 mice
Procedure: Tauopathy rTG4510 mice expressing human P301L Tau driven by CAMIII were treated I.P. for 7 or 21 consecutive days with 1.25 mg/kg, 2.5 mg/kg, 5.0 mg/kg of BK40143 or Dimethyl sulfoxide (DMSO).
pTau Ser396 (Invitrogen, KHB7031) ELISA was performed according to manufacturer's protocol on samples collected from DMSO and 2.5mgkg. S.Omg′kg, and 10 mg/kg treated mice. Samples were total brain lysates extracted in lX STEN buffer. Ordinary one-way ANOVA or Student's ! test was used. * P<0.05

[9] = test system: B35 rat neuroblastoma cells; assay: Lactate dehydrogenase (LDH) assay, cell toxicity; assay type: cell-based; conditions: 5 hours, concentration given in the value
Procedure: as §3, §4
Cellular cytotoxicity was quantitatively measured by assessment of LDH, a cytosolic enzyme that is released from damaged cells into the cellular media, after exposure to the drug 5 hours after initial dosage. The cell culture media was collected, and an aliquot was coupled with a lactate and NAD+. LDH catalyzes the reaction that converts lactate into pyruvate to produce NADH. NADH, in turn, reduces a tetrazolium salt (NT) into a red fornazan product. The amount of LDH in the media is proportional to the amount of formazan which was measured at 490 nn. The absorbance at 680 nm, to measure the background signal from the instrument, was subtracted from the absorbance at 490 nm to calculate the LDH activity. CelfCulture

reduction in phosphorylated DDR1 (pDDR1 Tyr513, 296) ([6]; 2.5 mg/kg) [%] | reduction in phosphorylated DDR1 (pDDR1 Tyr513, 296) ([6]; 5.0 mg/kg) [%] | SMILES | overall motor ability (open field) ([1]; 5.0 mg/kg I.P., 60 minutes open field) | open-field distance travelled ([1]; 5.0 mg/kg, sixty minutes, vs DMSO (ANOVA p=0.29)) | open-field time spent moving ([1]; 5.0 mg/kg, sixty minutes, vs DMSO (ANOVA p=0.32)) | hyperactivity/anxiety by observed center zone entries ([1]; 5.0 mg/kg, vs DMSO) | open-field velocity ([1]; 5.0 mg/kg, vs DMSO) | reduction in the ratio of p-Tau AT8 (Ser202, Thr205) to total Tau [2] [%] | reduction in the ratio of p-Tau (Thr231) (AT180) to total Tau [3] [%] | reduction in pTau Ser396 ([4]; 2.5 mg/kg) [%] | reduction in pTau Ser396 ([4]; 5.0 mg/kg) [%] | p-Tau (Ser396) levels ([4]; dose dependent, 2.5 and 5.0 mg/kg, quantitative ELISA) | nesting raw scores (nesting qualitative score) ([5]; vs 0 weeks (Mann-Whitney P=0.09) and vs DMSO (Kruskal-Wallis P=0.06)) | nesting mean difference scores ([5]; vs DMSO (Kruskal-Wallis P=0.06)) | cell toxicity, as measured by MTT assay [7] | tau in whole brain lysates [8] | cell toxicity, as measured by LDH assay [9]
22 | 21 | Cc1cccc(-c2cc3nccc(N4CCOCC4)c3s2)c1 [BK40197, 4-(2-(m-Tolyl)thieno[3,2-b]pyridin-7-yn)morpholine] | does not alter overall motor ability | non-significant reduction | non-signicant reduction; also recorded: non-significant reduction | no sign of hyperactivity/anxiety; also recorded: no sign of hyperactivity % anxiety | no difference in velocity | 14 | 22 | 11 | 23 | significantly reduces | nesting performance improved; also recorded: increase in performance | nesting performance improved; also recorded: increase in performance |  |  | 
 |  | O=C(O)c1ccccc1Nc1cccc(Cl)c1 [CL-2-287-2, 2-((3-Chlorophenyl)amino)benzoic acid] |  |  |  |  |  |  |  |  |  |  |  |  | at 10 pM or less did not show increased cell toxicity | significant reduction | at 100 uM or less did not show increased cell toxicity; also recorded: at 100 pM or less did not show increased cell toxicity
